Source: patent US12528793B2 (priority 2019, dated 2026)
≈ marks a conversion by molar mass, not a printed value.

How the values were obtained:
M. smegmatis mc2 155 = assay: Antimycobacterial activity (growth inhibition, MIC50) against M. smegmatis; assay type: cell-based; settings: Mycolicibacterium smegmatis, MC2155, read-out: M. smeg., MIC50
M. tuberculosis H37Rv = assay: Antimycobacterial activity (growth inhibition, MIC50) against Mtb; assay type: cell-based; settings: for MIC50: Mycobacterium tuberculosis, H37RV, read-out: Mtb, MIC50, [μM)
M. smegmatis mc^2 155 = assay: Kill kinetics against M. smegmatis mc^2 155; assay type: cell-based; settings: M. smegmatis mc^2 155, liquid culture, up to 4 days; (II) at 20-fold MIC50 (FIG. 1 legend 10×MIC50), BDQ 200×MIC50
M. bovis BCG cells = assay: microbe, parasite or virus in culture; assay type: cell-based; settings: Mycobacterium tuberculosis variant bovis BCG, read-out: IC50 for intracellular ATP synthesis inhibition
[1] = test system: human embryonic stem cell (hESC) line (E3); assay: hESC line (E3) genotoxicity and transcriptional program assays; assay type: cell-based; settings: racemate of (VI) 100 nM in combination with 300 nM of (II)
Text: Further, a human embryonic stem cell (hESC) line (E3) was used to examine both potential drug-induced genotoxicity and perturbations of the hESC transcriptional program that lead to hESC differentiation.

[2] = test system: M. bovis bacillus Calmette-Guérin (BCG); assay: microbe, parasite or virus in culture; assay type: cell-based; settings: Mycobacterium tuberculosis variant bovis BCG, read-out: MIC50 in M. bovis BCG
[3] = Metabolic stability in mouse liver microsomes

Row | Compound | MIC50 (M. smegmatis mc2 155) [µM] | MIC50 (M. tuberculosis H37Rv) [µM] | bactericidal activity (kill kinetics) (M. smegmatis mc^2 155) | IC50 (M. bovis BCG cells) [nM] | also measured
1 | CCNc1cc(C)nc(Nc2ccc3nc(-c4cccc(Cl)c4)[nH]c3c2)n1 [Formula (III), N^2-(2-(3-Chlorophenyl)-1H-benzo[d]imidazol-5-yl)-N^4-ethyl-6-methylpyrimidine-2,4-diamine] | 14.6 | 5.2 | – | – | –
2 | COc1nc2ccc(Br)cc2cc1[C@@H](c1ccccc1)[C@@](O)(CCN(C)C)c1cccc2ccccc12 [BDQ, Bedaquiline, reference compound] | – | – | delayed bactericidal activity | 11.5 | –
3 | CCSCCCOc1cccc(C(c2cc3cc(Br)ccc3nc2OC)C(O)(CCN(C)C)c2cc(OC)nc(OC)c2)c1OC (racemic) [Formula (VI)] | – | – | – | 3.4 | alterations in the global transcriptional program [1]: nor induced major alterations; genotoxic effects [1]: did not show substantial genotoxic effects
4 | CCNc1cc(C)nc(Nc2ccc3nc(-c4ccc(Cl)cc4)[nH]c3c2)n1 [Formula (II), N^2-(2-(4-Chlorophenyl)-1H-benzo[d]imidazol-5-yl)-N^4-ethyl-6-methylpyrimidine-2,4-diamine] | 9.9 | 3 | bactericidal | 3300 | fold improvement of MIC50 (M. tuberculosis H37Rv; Mtb H37Rv, compared with cpd6 of WO 2018/151681 A2): 10 fold; MIC50 [2]: 6.8 µM; CIint [3]: 46.8; CLhep [3]: 60.5 mL/min/kg; T1/2 [3]: 29.6 min
5 | CCNc1cc(C)nc(Nc2ccc3[nH]c(-c4ccccc4)nc3c2)n1 | 23.5 (≈ 8.09 µg/mL) | 8.8 (≈ 3.03 µg/mL) | – | – | –
